Laboratory results: patent publication US8057992B2, “Methods for identifying peptides that bind to intact oocytes” (Auburn University, priority 2007, dated 2011)
Entries after “also recorded” stand apart in the source; their conditions may differ. Ends that are not written are not given here.

Experiments:
[1] = tested on: ZP proteins on intact canine oocytes; assay: Phage display selection of ZP-binding peptides on intact canine oocytes; details: four rounds of selection, 1000 intact canine oocytes per round, 7-mer and 12-mer phage display libraries
Experimental: The phage display procedure developed herein utilizes intact oocytes surrounded by ZP proteins. In this procedure, ZP proteins remain on oocytes in their native conformation, unlike previously published selection protocols that use denatured ZPs immobilized on an artificial solid support. The procedure involves incubating isolated oocytes with a phage display library followed by washing of unbound phage. Oocytes are lysed, and bound phage are amplified in bacterial cultures. Enrichment in ZP-binding phage clones is achieved in four subsequent selection rounds, after which selected phage DNAs are sequenced and translated to obtain peptide sequences.
Collection of dog ova: Oocytes were isolated from dog ovaries obtained from spay/neuter clinics. All ovaries were collected from bitches (six months of age and older) undergoing elective ovariohysterectomy. Approximately 20-30 oocytes from each pair of ovaries were isolated. Ova were washed extensively, retrieved by visual inspection at 12× magnification, washed two additional times, pooled and frozen before the use. Oocytes isolated from dog ovaries were characterized by microscopic evaluations.
Identification of peptides that bind to ZP proteins on intact canine oocytes: Peptides that specifically bind to ZP proteins were identified by utilizing two phage display libraries purchased from New England BioLabs, including: PhD-C7C Peptide 7-mer Library Kit and PhD-12 Peptide Library Kit. The utilized approach selects peptides that mimic the sperm antigen at the level of the ZP-sperm binding (FIG. 2).
Four rounds of selection were performed using each library. For each selection round, an aliquot of the primary library was diluted in a blocking buffer and incubated with 1000 intact canine oocytes surrounded by ZP. After incubation, phages expressing peptides not bound to oocytes were washed away and the bound phages were recovered by lysis. […] Peptide sequences from phage display selection on intact dog oocytes surrounded by ZP included: LNSFLRS (SEQ ID NO:1), LSTALRS (SEQ ID NO:2), SSWYRGA (SEQ ID NO:3), TGTSTRA (SEQ ID NO:4), YLPIYTIPSMVY (SEQ ID NO:5), NNQSPILKLSIH (SEQ ID NO:6), and AHPNTAPIHPKF (SEQ ID NO:7). Based on the peptide sequences, the following five antigens were prepared: antigen 1—YLPVGGLRRIGG (SEQ ID NO:14), antigen 2—CLNSFLRSC-KGG (SEQ ID NO:9), antigen 3—YLPIYTIPSMVY-GG (SEQ ID NO:12), antigen 4—NNQSPILKLSIH-GG (SEQ ID NO:13), and antigen 5—CSSWYRGAC-KGGY (SEQ ID NO:11).

dogs = assay: Peptide ELISA of serum from immunized dogs for anti-peptide antibodies; format: in vivo, dog
Experimental: Immunization of dogs with ZP-binding peptides conjugated to a carrier protein: The peptides were synthesized by Global Peptide Services (Fort Collins, Colo.) at a yield of 10-20 mg having 95% purity. Two of the selected peptides were 7 amino acids long and the other two were 12 amino acids long. Antigen was taken from the literature (6) to serve as a control. To assure maximum immunogenicity, the peptides were conjugated to keyhole-limpet hemocyanin (KLH), a carrier protein. For vaccinations, the antigen was formulated to include: 250 μg of KLH conjugated peptide mixed with aluminum hydroxide adjuvant (Alhydrogel 85) and 100 μg canine specific immunostimulatory oligodeoxynucleotide (CpG). Four of the selected peptides and one control peptide were injected intramusculary into each dog (one dog/peptide). Booster immunizations were given twice to achieve high titer antisera. Each immunized dog served as his/her own control since none were expected to have preexisting antibodies to the selected peptides.
Evaluation of serum collected from immunized dogs for anti-ZP-binding peptide antibodies: Serum samples were collected from all dogs prior to immunization and biweekly or monthly thereafter during a 12-month period. The samples were tested for the presence of anti-peptide antibodies in a peptide ELISA format. […] The immunization scheme was as described above.

canine sperm cells = assay: Sperm cell ELISA of serum from dogs immunized with antigen 4; format: in vivo; details: three dogs immunized with antigen 4; sperm cell ELISA at serum dilution 1:50 (FIG. 5)

Row | Substance | binding to ZP (peptide sequences of phage selected on intact dog oocytes) [1] | also measured
1 | AHPNTAPIHPKF (Phage library random peptide insert) [SEQ ID NO:7] | responsible for binding to ZP | –
2 | LNSFLRS (Phage library random peptide insert) [SEQ ID NO:1] | responsible for binding to ZP | –
3 | LSTALRS (Phage library random peptide insert) [SEQ ID NO:2] | responsible for binding to ZP | –
4 | NNQSPILKLSIH (Phage library random peptide insert) [SEQ ID NO:6] | responsible for binding to ZP | –
5 | NNQSPILKLSIH-GG (NNQSPILKLSIHGG; also: conjugated to carrier protein) [antigen 4] | – | immunogenicity: anti-peptide antibody levels in serum (dogs; one dog per antigen, 250 μg KLH conjugated peptide with aluminum hydroxide adjuvant and CpG, intramuscular, two boosts, peptide ELISA at serum dilution 1:6400 (FIG. 3)): specific anti-peptide antibodies at high levels; also recorded: high immunogenic properties; titers of anti-peptide antibodies (dogs; three additional dogs, same immunization scheme, peptide ELISA at serum dilution 1:6400 (FIG. 4)): high titers of anti-peptide antibodies; binding of raised antibodies to canine sperm cells (anti-sperm antibody levels) (canine sperm cells): bind to canine sperm cells
6 | SSWYRGA (Phage library random peptide insert) [SEQ ID NO:3] | responsible for binding to ZP | –
7 | TGTSTRA (Phage library random peptide insert) [SEQ ID NO:4] | responsible for binding to ZP | –
8 | YLPIYTIPSMVY (Phage library random peptide insert) [SEQ ID NO:5] | responsible for binding to ZP | –
